Molecular target: human-cGAS (h-cGAS) (Homo sapiens, UniProt Q8N884)
Test: hcGAS Kinase-Glo Assay
Format: biochemical
Conditions: 40 nM h-cGAS, 100 μM ATP, 100 μM GTP, 25 nM dsDNA, 3 h incubation, read-out: hcGAS potency IC50
Procedure: In some embodiments, the compounds of the instant disclosure may be tested for their human-cGAS (h-cGAS) inhibition activity using the methodology reported in Lama et al., “Development of human cGAS-specific small molecule inhibitors for repression of double stranded DNA (dsDNA)-triggered interferon expression”, Nature Communications 10, Article number: 2261 (2019), incorporated herein by reference. hcGAS Kinase-Glo Assay Compounds were tested for their human-cGAS (h-cGAS) inhibition activity using the methodology reported in Lama et al., “Development of human cGAS-specific small molecule inhibitors for repression of double stranded DNA (dsDNA)-triggered interferon expression”, Nature Communications 10. Article number: 2261 (2019), which is herein incorporated by reference in its entirety, with slight changes to some conditions as shown in Table B. The results of the assays, expressed in IC50 ranges are reported in Table C with the following designations: A represents an IC50 value <0.1 μM; B represents an IC50 value ≥0.1 μM and <0.5 μM; C represents an IC50 value ≥0.5 μM and <1.0 μM; D represents an IC50 value ≥1.0 μM. [table]

human-cGAS (h-cGAS), sequence (Q8N884 whole entry): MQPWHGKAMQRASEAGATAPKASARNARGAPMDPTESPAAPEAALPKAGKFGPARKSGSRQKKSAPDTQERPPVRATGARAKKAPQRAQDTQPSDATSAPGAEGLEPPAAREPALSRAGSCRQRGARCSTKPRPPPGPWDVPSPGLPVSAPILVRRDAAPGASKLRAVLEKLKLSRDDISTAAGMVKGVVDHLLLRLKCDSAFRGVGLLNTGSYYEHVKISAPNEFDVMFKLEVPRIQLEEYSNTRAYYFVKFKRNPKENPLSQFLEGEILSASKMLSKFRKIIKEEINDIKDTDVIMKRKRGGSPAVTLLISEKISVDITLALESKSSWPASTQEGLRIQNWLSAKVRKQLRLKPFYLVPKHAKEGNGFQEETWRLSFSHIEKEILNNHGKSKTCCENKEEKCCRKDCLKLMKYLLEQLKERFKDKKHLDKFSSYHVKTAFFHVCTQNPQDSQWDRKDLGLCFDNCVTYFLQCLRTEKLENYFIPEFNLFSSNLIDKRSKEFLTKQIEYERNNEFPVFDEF

| SMILES | IC50 [nM] |
| --- | --- |
| CC(C)c1cc(C(=O)Nc2nnc(-c3ccccc3Cl)s2)on1 [Compound 40, N-(5-(2-chlorophenyl)-1,3,4-thiadiazol-2-yl)-3-isopropylisoxazole-5-carboxamide] | 100 to 500 |
| CC1(c2cc(C(=O)Nc3nnc(-c4ccccc4Cl)s3)on2)COC1 [Compound 41, N-(5-(2-chlorophenyl)-1,3,4-thiadiazol-2-yl)-3-(3-methyloxetan-3-yl)isoxazole-5-carboxamide] | 100 to 500 |
| CSc1nnc(NC(=O)c2cn(Cc3ccccc3)nn2)s1 [Compound 42, 1-benzyl-N-(5-(methylthio)-1,3,4-thiadiazol-2-yl)-1H-1,2,3-triazole-4-carboxamide] | ≥ 1000 |
| CSc1nnc(NC(=O)c2onc3c2CN(C(=O)OC(C)(C)C)CC3)s1 [Compound 43, tert-butyl 3-((5-(methylthio)-1,3,4-thiadiazol-2-yl)carbamoyl)-6,7-dihydroisoxazolo[4,3-c]pyridine-5(4H)-carboxylate] | ≥ 1000 |
| CSc1nnc(NC(=O)c2nnc(Cc3cccc(Cl)c3)o2)s1 [Compound 44, 5-(3-chlorobenzyl)-N-(5-(methylthio)-1,3,4-thiadiazol-2-yl)-1,3,4-oxadiazole-2-carboxamide] | ≥ 1000 |
| CSc1nnc(NC(=O)c2nnc(-c3c(F)cccc3F)o2)s1 [Compound 45, 5-(2,6-difluorophenyl)-N-(5-(methylthio)-1,3,4-thiadiazol-2-yl)-1,3,4-oxadiazole-2-carboxamide] | 500 to 1000 |
| CSc1nnc(NC(=O)c2cc(-c3c(F)cccc3F)no2)s1 [Compound 46, 3-(2,6-difluorophenyl)-N-(5-(methylthio)-1,3,4-thiadiazol-2-yl)isoxazole-5-carboxamide] | 100 to 500 |
| CSc1nnc(NC(=O)c2cc(-c3cc(F)ccc3F)no2)s1 [Compound 47, 3-(2,5-difluorophenyl)-N-(5-(methylthio)-1,3,4-thiadiazol-2-yl)isoxazole-5-carboxamide] | 500 to 1000 |
| CSc1nnc(NC(=O)c2cc(-c3ccc(F)cc3F)no2)s1 [Compound 48, 3-(2,4-difluorophenyl)-N-(5-(methylthio)-1,3,4-thiadiazol-2-yl)isoxazole-5-carboxamide] | 500 to 1000 |
| CSc1nnc(NC(=O)c2nnc(Cc3ccccc3Cl)o2)s1 [Compound 49, 5-(2-chlorobenzyl)-N-(5-(methylthio)-1,3,4-thiadiazol-2-yl)-1,3,4-oxdiazole-2-carboxamide] | 500 to 1000 |
| CSc1nnc(NC(=O)c2cc(-c3ccc(Cl)cc3)no2)s1 [Compound 50, 3-(4-chlorophenyl)-N-(5-(methylthio)-1,3,4-thiadiazol-2-yl)isoxazole-5-carboxamide] | 500 to 1000 |
| O=C(Nc1nnc(-c2ccccc2Cl)s1)c1cc(=O)c2cccc(O)c2[nH]1 [Compound 51, N-(5-(2-chlorophenyl)-1,3,4-thiadiazol-2-yl)-8-hydroxy-4-oxo-1,4-dihydroquinoline-2-carboxamide] | 500 to 1000 |
| Cn1cc(-c2cc(C(=O)Nc3nnc(-c4ccccc4Cl)s3)on2)cn1 [Compound 52, N-(5-(2-chlorophenyl)-1,3,4-thiadiazol-2-yl)-3-(1-methyl-1H-pyrazol-4-yl)isoxazole-5-carboxamide] | 100 to 500 |
| Cc1c(-c2cc(C(=O)Nc3nnc(-c4ccccc4Cl)s3)on2)cnn1C [Compound 53, N-(5-(2-chlorophenyl)-1,3,4-thiadiazol-2-yl)-3-(1,5-dimethyl-1H-pyrazol-4-yl)isoxazole-5-carboxamide] | 100 to 500 |
| Cc1nn(C)cc1-c1cc(C(=O)Nc2nnc(-c3ccccc3Cl)s2)on1 [Compound 54, N-(5-(2-chlorophenyl)-1,3,4-thiadiazol-2-yl)-3-(1,3-dimethyl-1H-pyrazol-4-yl)isoxazole-5-carboxamide] | 100 to 500 |
| O=C(Nc1nnc(-c2ccccc2Cl)s1)c1cc(O)no1 [Compound 55, N-(5-(2-chlorophenyl)-1,3,4-thiadiazol-2-yl)-3-hydroxyisoxazole-5-carboxamide] | < 100 |
| O=C(Nc1nnc(-c2ccccc2Cl)s1)c1ccc(O)nn1 [Compound 56, N-(5-(2-chlorophenyl)-1,3,4-thiadiazol-2-yl)-6-hydroxypyridazine-3-carboxamide] | 100 to 500 |
| O=C(Nc1nnc(-c2cccc(Cl)c2Cl)s1)c1cc(O)no1 [Compound 57, N-(5-(2,3-dichlorophenyl)-1,3,4-thiadiazol-2-yl)-3-hydroxyisoxazole-5-carboxamide] | < 100 |
| O=C(Nc1nnc(-c2ccccc2Cl)s1)c1nc[nH]n1 [Compound 58, N-(5-(2-chlorophenyl)-1,3,4-thiadiazol-2-yl)-1H-1,2,4-triazole-3-carboxamide] | 500 to 1000 |
| O=C(Nc1nnc(-c2ccccc2Cl)s1)c1c[nH]nn1 [Compound 59, N-(5-(2-chlorophenyl)-1,3,4-thiadiazol-2-yl)-1H-1,2,3-triazole-4-carboxamide] | 500 to 1000 |

| SMILES | IC50 [nM] |
| --- | --- |
| O=C(Nc1nnc(-c2ccccc2Cl)s1)c1nnn[nH]1 [Compound 60, N-(5-(2-chlorophenyl)-1,3,4-thiadiazol-2-yl)-1H-tetrazole-5-carboxamide] | ≥ 1000 |
| O=C(Nc1nnc(-c2ccccc2Cl)s1)c1c[nH]c(=O)o1 [Compound 61, N-(5-(2-chlorophenyl)-1,3,4-thiadiazol-2-yl)-2-oxo-2,3-dihydrooxazole-5-carboxamide] | 100 to 500 |
| O=C(Nc1nnc(-c2ccccc2Cl)s1)c1ccnc(=O)[nH]1 [Compound 62, N-(5-(2-chlorophenyl)-1,3,4-thiadiazol-2-yl)-2-oxo-2,3-dihydropyrimidine-4-carboxamide] | ≥ 1000 |
| O=C(Nc1nnc(-c2ccccc2Cl)s1)c1n[nH]c(=O)[nH]1 [Compound 63, N-(5-(2-chlorophenyl)-1,3,4-thiadiazol-2-yl)-5-oxo-4,5-dihydro-1H-1,2,4-triazole-3-carboxamide] | 500 to 1000 |
| O=C(Nc1nnc(-c2ccccc2Cl)s1)c1ccc(O)c(=O)o1 [Compound 64, N-(5-(2-chlorophenyl)-1,3,4-thiadiazol-2-yl)-3-hydroxy-2-oxo-2H-pyran-6-carboxamide] | < 100 |
| CSc1nnc(NC(=O)c2nc(-c3ccccc3)cs2)s1 [Compound 65, N-(5-(methylthio)-1,3,4-thiadiazol-2-yl)-4-phenylthiazole-2-carboxamide] | ≥ 1000 |
| CSc1nnc(NC(=O)c2nnn(-c3ccccc3)n2)s1 [Compound 66, N-(5-(methylthio)-1,3,4-thiadiazol-2-yl)-2-phenyl-2H-tetrazole-5-carboxamide] | 500 to 1000 |
| CSc1nnc(NC(=O)c2onc3c2CCCC3)s1 [Compound 67, N-(5-(methylthio)-1,3,4-thiadiazol-2-yl)-4,5,6,7-tetrahydrobenzo[c]isoxazole-3-carboxamide] | 500 to 1000 |
| CSc1nnc(NC(=O)c2cc(-c3cccc4c3CCC4)no2)s1 [Compound 68, 3-(2,3-dihydro-1H-inden-4-yl)-N-(5-(methylthio)-1,3,4-thiadiazol-2-yl)isoxazole-5-carboxamide] | 500 to 1000 |
| CCc1nnc(NC(=O)c2onc3ccccc23)s1 [Compound 69, N-(5-ethyl-1,3,4-thiadiazol-2-yl)benzo[c]isoxazole-3-carboxamide] | 500 to 1000 |
| CCSc1nnc(NC(=O)c2onc3ccccc23)s1 [Compound 70, N-(5-(ethylthio)-1,3,4-thiadiazol-2-yl)benzo[c]isoxazole-3-carboxamide] | ≥ 1000 |
| CSc1nnc(NC(=O)c2nc(-c3cnccn3)no2)s1 [Compound 71, N-(5-(methylthio)-1,3,4-thiadiazol-2-yl)-3-(pyrazin-2-yl)-1,2,4-oxadiazole-5-carboxamide] | 500 to 1000 |
| CSc1nnc(NC(=O)c2cncc(-c3ccccn3)c2)s1 [Compound 72, N-(5-(methylthio)-1,3,4-thiadiazol-2-yl)-[2,3′-bipyridine]-5′-carboxamide] | ≥ 1000 |
| CSc1nnc(NC(=O)c2nnc(N3CCC3c3ccccc3)o2)s1 (stereo not shown) [Compound 74, N-(5-(methylthio)-1,3,4-thiadiazol-2-yl)-5-(2-phenylazetidin-1-yl)-1,3,4-oxadiazole-2-carboxamide] | ≥ 1000 |
| CSc1nnc(NC(=O)c2cc(-c3cccs3)no2)s1 [Compound 75, N-(5-(methylthio)-1,3,4-thiadiazol-2-yl)-3-(thiophen-2-yl)isoxazole-5-carboxamide] | 500 to 1000 |
| CSc1nnc(NC(=O)c2cnc(-c3cccs3)s2)s1 [Compound 76, N-(5-(methylthio)-1,3,4-thiadiazol-2-yl)-2-(thiophen-2-yl)thiazole-5-carboxamide] | ≥ 1000 |
| CSc1nnc(NC(=O)c2nc(-c3cccs3)oc2C)s1 [Compound 77, 5-methyl-N-(5-(methylthio)-1,3,4-thiadiazol-2-yl)-2-(thiophen-2-yl)oxazole-4-carboxamide] | ≥ 1000 |
| CSc1nnc(NC(=O)c2cc3c(C)cc(F)cc3[nH]2)s1 [Compound 78, 6-fluoro-4-methyl-N-(5-(methylthio)-1,3,4-thiadiazol-2-yl)-1H-indole-2-carboxamide] | 500 to 1000 |
| CSc1nnc(NC(=O)c2onc3ccccc23)s1 [Compound 79, N-(5-(methylthio)-1,3,4-thiadiazol-2-yl)benzo[c]isoxazole-3-carboxamide] | 500 to 1000 |
| CSc1nnc(NC(=O)c2cc(C3CCOCC3)no2)s1 [Compound 80, N-(5-(methylthio)-1,3,4-thiadiazol-2-yl)-3-(tetrahydro-2H-pyran-4-yl)isoxazole-5-carboxamide] | 500 to 1000 |

— US20250002487A1, “HETEROCYCLIC COMPOUNDS AND USES THEREOF” (Ventus Therapeutics U.S., Inc., priority 2021, published 2025)
